Reference: article PMC9814205, “Targeting undruggable carbohydrate recognition sites through focused fragment library design” (Communications Chemistry, 2022)
Several values for one entry are separate records, joined by “and”; a condition that tells them apart may be missing. Equal entries are not always repeated. Entries after “also recorded” stand apart in the source; their conditions may differ.

Assays:
Assay type in all cases: binding
5FW LecA (PA-IL) = biological target: T1, 5FW LecA (PA-IL) (Pseudomonas aeruginosa, UniProt Q05097); experiment: PrOF NMR with 5-fluorotryptophan-labeled LecA; conditions: for LE: ligand efficiency calculated from Kd for LecA, 310 K
T1 construct: made in house
T1 sequence (Q05097 2-122): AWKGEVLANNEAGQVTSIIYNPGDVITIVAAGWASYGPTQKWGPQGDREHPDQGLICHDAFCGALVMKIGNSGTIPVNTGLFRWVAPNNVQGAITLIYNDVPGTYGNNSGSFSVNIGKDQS
Procedure: PrOF NMR was performed as reported previously. Briefly, 150 µM 5FW LecA was recorded alone and in the presence of DMSO or 2–4 mM compounds in TBS/Ca^2+ buffer. The difference in chemical shift perturbations of W42 in 5FW LecA free vs bound forms was followed to determine Kd values of compounds. The Kd values were calculated according to the one-site-binding model in Origin(Pro) 2020b (OriginLab Corp., USA) from two or three independent titrations. Ligand efficiency values were calculated according to Eq. (1) for a temperature of 310 K.

LecA [1] = biological target: T2, LecA (Pseudomonas aeruginosa, UniProt Q05097); experiment: Competitive fluorescence polarization (FP) assay; conditions: for Inhibition in FP: compared to MeGal at 10 mM (16 h); for inhibition at 10000 µM: read-out: Inhibition in FP, compared to MeGal at 10 mM (16 h)
T2 construct: made in house
T2 sequence (Q05097 whole entry): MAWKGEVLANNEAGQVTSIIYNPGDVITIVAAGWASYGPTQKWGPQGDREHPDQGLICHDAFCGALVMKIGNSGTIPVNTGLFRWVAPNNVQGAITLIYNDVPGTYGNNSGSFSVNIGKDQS
Procedure: The FP assay was performed in a black 384-well plate (Greiner Bio-One, Germany, 781900) with the final volume of 20 µL as described previously. Briefly, 10 µL of a sample solution series (10–0.078 mM) in TBS buffer containing 10 mM Ca^2+ (TBS/Ca^2+-buffer) and 20% DMSO were added in technical triplicates to 10 µL LecA (40 µM) preincubated with a galactose-based Cy5 conjugate[68] (20 nM) in TBS/Ca^2+-buffer. […] The plate was sealed (EASYseal, Greiner Bio-One, 676,001), centrifuged (1 min, 1500 rpm, 25 °C) and incubated in a humidity chamber for 16 h. The fluorescence was measured with an excitation 590 nm and emission 675 nm filter[68] on a PheraStar FS plate reader (BMG Labtech GmbH, Germany). The blank signal of TBS/Ca^2+-buffer containing 10% DMSO was subtracted and the compounds were analyzed with the MARS Data Analysis Software (BMG Labtech GmbH Germany) using the four-parameter variable slope model. The top and bottom plateaus were defined according to the positive controls. The graphs were visualized using Graphpad Prism 5. The percentage (%) of inhibition was calculated at the highest concentration compared with 10 mM MeGal set to 100%.

LecA [2] = biological target: T2, LecA; experiment: SPR with immobilized LecA; conditions: compounds at 0.2 and 1 mM
Procedure: All experiments were performed on a BIACORE X100 instrument (GE Healthcare) at 25 °C in phosphate-buffered saline (10 mM phosphate buffer pH 7.4, 2.7 mM KCl, 137 mM NaCl, 0.05% Tween-20, 100 µM CaCl2, 5% DMSO). LecA was immobilized onto a CM7 chip (BIACORE) following standard amine coupling procedures. The CM7 chip was activated by three injections of a NHS/EDC mixture with a contact time of 540 s at a flow rate of 10 µL min^−1 until the response exceeded 800 RU, followed by multiple injections of LecA dissolved in 10 mM sodium acetate pH 4.5 (100 µg/mL) onto channel 2 (contact time of 540 s at a flow rate of 10 µL min^−1). A minimum of 10,000 RU of LecA was captured onto the chip. Initial binding screens were performed with the injections of 0.2 and 1 mM of each hydroxamate (association 30 s, dissociation 60 s, 30 µL min^−1 flow rate), to identify the initial binders eliciting dose-response behaviors. Injection of the positive control (0.1 mM 4-Nitrophenyl-β-D-galactoside) was included after every forth injection cycle to monitor the activity of immobilized LecA throughout the binding screen experiments. All data evaluation was performed using BIACORE X100 evaluation software (v.2.0).

LecB (PA-IIL) = biological target: T3, LecB (PA-IIL) (Pseudomonas aeruginosa, UniProt Q9HYN5); experiment: 1H-15N TROSY NMR with 15N LecB; conditions: 2 mM compound
T3 construct: made in house
T3 sequence (Q9HYN5 entry or part of it): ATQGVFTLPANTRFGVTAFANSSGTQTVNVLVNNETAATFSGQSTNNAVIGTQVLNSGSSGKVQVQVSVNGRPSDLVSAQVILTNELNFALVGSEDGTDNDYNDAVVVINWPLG
Procedure: The ^1H-^15N TROSY pulse sequence trosyf3gpphsi19 with 128 increments and 32 scans per increment was applied for 0.15 mM ^15N LecA and 0.07 mM LecB in HBS/Ca^2+ buffer (20 mM HEPES pH 7.4, 150 mM NaCl, 10 mM CaCl2, 10% D2O and 100 µM sodium trimethylsilylpropanesulfonate (DSS) as internal reference) at 310 K. The ^1H-^15N HSQC pulse sequence hsqcf3gpph19 with 128 increments and 8 scans per increment was applied for 0.1 mM ^15N DC-SIGN and Langerin CRD in HBS/Ca^2+ buffer at 298 K. For screening of 650 non-fluorinated fragments of the general library against ^15N LecA, a mix of 10 compounds at 1 mM each was combined with 0.15 mM ^15N LecA in HBS/Ca^2+ buffer (20 mM HEPES pH 7.4, 150 mM NaCl, 10 mM CaCl2, 10% D2O and 100 µM sodium trimethylsilylpropanesulfonate (DSS) as internal reference, whereas the fragments with the MBP scaffolds were validated separately at 1 mM. Similarly, 9 nonfluorinated fragments from the MBP library were screened against ^15N-labeled DC-SIGN, LecA and LecB. To validate the fragment binding to proteins, we recorded ^1H-^15N HSQC and TROSY NMR of proteins in the presence of DMSO as negative control and 2 mM fragments in HBS/Ca^2+ buffer. Natural ligands were used as positive controls at 1 mM MeGal, MeFuc and 30 mM D-mannose to LecA/LecB and DC-SIGN CRD/Langerin CRD, respectively. Titration experiments with ^15N-labeled DC-SIGN CRD or LecB were recorded in HBS/Ca^2+ buffer with 30 mM CaCl2 and 0.25 to 4–8 mM malonic acid derivatives. The Kd values were calculated according to the one-site-binding model in Origin(Pro) 2020b (OriginLab Corp., USA). […]
All data were processed with NMRpipe[65] and analyzed with CcpNmr analysis. […] The changes in chemical shift perturbations (CSPs) were calculated according to Eq. (2):2 △δ=1/2△δH2+α△δN^2 in which δ is the difference in chemical shift (in ppm) and α is an empirical weighting factor of 0.14 for all amino acid backbone resonances. […]

15N LecA = biological target: T4, 15N LecA (Pseudomonas aeruginosa, UniProt Q05097); experiment: 1H-15N TROSY NMR with 15N LecA; conditions: for binding to 15N LecA in TROSY NMR: 4 mM analogs of 1, 1 mM marketed hydroxamates
T4 construct: made in house
T4 sequence (Q05097 whole entry): as the sequence (Q05097 whole entry) above
Procedure: The ^1H-^15N TROSY pulse sequence trosyf3gpphsi19 with 128 increments and 32 scans per increment was applied for 0.15 mM ^15N LecA and 0.07 mM LecB in HBS/Ca^2+ buffer (20 mM HEPES pH 7.4, 150 mM NaCl, 10 mM CaCl2, 10% D2O and 100 µM sodium trimethylsilylpropanesulfonate (DSS) as internal reference) at 310 K. The ^1H-^15N HSQC pulse sequence hsqcf3gpph19 with 128 increments and 8 scans per increment was applied for 0.1 mM ^15N DC-SIGN and Langerin CRD in HBS/Ca^2+ buffer at 298 K. For screening of 650 non-fluorinated fragments of the general library against ^15N LecA, a mix of 10 compounds at 1 mM each was combined with 0.15 mM ^15N LecA in HBS/Ca^2+ buffer (20 mM HEPES pH 7.4, 150 mM NaCl, 10 mM CaCl2, 10% D2O and 100 µM sodium trimethylsilylpropanesulfonate (DSS) as internal reference, whereas the fragments with the MBP scaffolds were validated separately at 1 mM. Similarly, 9 nonfluorinated fragments from the MBP library were screened against ^15N-labeled DC-SIGN, LecA and LecB. To validate the fragment binding to proteins, we recorded ^1H-^15N HSQC and TROSY NMR of proteins in the presence of DMSO as negative control and 2 mM fragments in HBS/Ca^2+ buffer. Natural ligands were used as positive controls at 1 mM MeGal, MeFuc and 30 mM D-mannose to LecA/LecB and DC-SIGN CRD/Langerin CRD, respectively. Titration experiments with ^15N-labeled DC-SIGN CRD or LecB were recorded in HBS/Ca^2+ buffer with 30 mM CaCl2 and 0.25 to 4–8 mM malonic acid derivatives. The Kd values were calculated according to the one-site-binding model in Origin(Pro) 2020b (OriginLab Corp., USA). Ligand efficiency calculations were done according to Eq. (1) for a temperature of 298 K and 310 K for DC-SIGN CRD and LecB, respectively.1 LE=RTlnKd/HA, with the temperature T [K], the gas constant R [kcal mol^−1 K^−1], and the number of non-hydrogen atoms HA[56].
All data were processed with NMRpipe[65] and analyzed with CcpNmr analysis. For data analysis, the protein fingerprint of ^15N DC-SIGN (Table S7) or Langerin CRD was assigned as reported previously. The ^1H-^15N TROSY resonances of ^15N LecA and ^15N LecB were indexed with IDs due to a lack of protein backbone resonance assignment (Tables S8-S9). Next, resonance IDs from protein spectra were transferred to the spectra obtained in the presence of compounds in order to compare the changes in chemical shift perturbations for the fast exchange peaks. The changes in chemical shift perturbations (CSPs) were calculated according to Eq. (2):2 △δ=1/2△δH2+α△δN^2 in which δ is the difference in chemical shift (in ppm) and α is an empirical weighting factor of 0.14 for all amino acid backbone resonances. The threshold value was set based on three independent measurements of reference spectra to 0.01 ppm for LecA, LecB, DC-SIGN CRD and Langerin CRD.

LecA [3] = biological target: T2, LecA; experiment: Competitive 19F T2-filtered NMR with reporter 5; conditions: 0.1 mM 5, 10 mM CaCl2, 3 mM competitor
Procedure: The analogs of 1 (5) and 58 (61) were used as fluorinated spy molecules in ^19F T2-filtered NMR experiments. Two samples containing 0.1 mM 5 or 61 alone or a 10 µM protein in TBS/EDTA buffer followed by addition of 10 mM CaCl2 and the carbohydrates: 1 mM MeGal (LecA), 1 mM MeFuc (LecB/BambL) and 30 mM D-mannose (DC-SIGN/Langerin). Similarly, 0.1 mM 5 was used to prioritize hydroxamate derivatives, where 3 mM analogs of 1 were added to the samples instead of the carbohydrates. The ^19F and ^19F T2-filtered spectra were recorded with 64 scans, a spectral width of 5 ppm, a transmitter offset at −155.5 ppm (5) and −155.5 ppm (61), the acquisition time of 0.8 s, 2 s relaxation time applying a T2-filter of 384 ms. All spectra were analyzed as described above.

| Structure (SMILES) | Kd (5FW LecA (PA-IL)) [mM] | Inhibition in FP (LecA [1]) | inhibition at 10000 µM (LecA [1]) [%] | binding to 15N LecA in TROSY NMR (15N LecA) | also measured |
| --- | --- | --- | --- | --- | --- |
| NC(C(=O)NO)c1ccccc1 (stereo not drawn) [compound 1] | 7.2 ± 1.4 |  |  |  | LE (5FW LecA (PA-IL)): 0.25 kcal mol^−1 HA^−1; inhibition at 4000 µM (LecA [1]; read-out: Inhibition in FP, compared to MeGal, measured at 4 mM (16 h)): 6%; Efficiency in SPR (normalized binding response) (LecA [2]): 11.6%; binding to 15N LecB in TROSY NMR (LecB (PA-IIL)): did not bind; total % of CSPs normalized to MeGal in 15N LecA (15N LecA; 2 mM compound, 1 mM MeGal): 40%; competition of reporter 5 from LecA (recovery of 19F peak) (LecA [3]): did not displace |
| O=C(Cc1ccccc1)NO [compound 2, N-hydroxy-2-phenylacetamide] | 6.1 ± 0.9 | 18 ± 1% | 18.3 ± 1 | preserved the binding | competition of reporter 5 from LecA (recovery of 19F peak) (LecA [3]): recovered |
| O=C(CC1CCCCC1)NO [compound 6] | 4.4 ± 0.6 |  | 21 ± 1 | preserved its binding | LE (5FW LecA (PA-IL)): 0.30 kcal mol^−1 HA^−1 |
| CONC(=O)Cc1ccccc1 [compound 7] |  | lost their binding and inhibitory effect; also recorded: No inhibiton |  | not tolerated |  |
| CN(O)C(=O)Cc1ccccc1 [compound 8] |  |  | 20 ± 3 | not tolerated |  |
| Cc1ccc(CC(=O)NO)cc1 [compound 9] |  | 14–16% and 16 ± 2% |  |  |  |
| Cc1ccccc1CC(=O)NO [compound 10] |  | 14–16% and 14 ± 4% |  |  |  |
| O=C(Cc1ccc(Br)cc1)NO [compound 11] |  | 14–16% and 14 ± 1% |  |  |  |
| COc1ccc(CC(=O)NO)cc1 [compound 15] |  | 14–16% and 16 ± 4% |  |  |  |
| COc1cccc(C(O)=CC(=O)NO)c1 [compound 31] |  |  | 9 ± 2 |  |  |
| O=C(CCCc1ccccc1)NO [compound 35, N-hydroxy-4-phenylbutanamide] | 4.6 ± 0.9 |  | 26 ± 1 | preserved the binding | LE (5FW LecA (PA-IL)): 0.26 kcal mol^−1 HA^−1; competition of reporter 5 from LecA (recovery of 19F peak) (LecA [3]): recovered; also recorded: displaced |
